pIC50: −log10 of the molar value. ≈ marks a conversion by molar mass, not a printed value. Counter-ions that a name gives are not always drawn. Like-named read-outs stand apart in the source and are kept apart here.
Tests used:
[1] = tested on: lymphocytic leukemia P388; assay: in vivo lymphocytic leukemia P388 test; parameters: species or system CD2 F1 mice; conditions: Mus musculus, P388, ip, 120 h, intraperitoneally once daily for five days, read-out: P388 in vivo T/C × 100
Protocol: Another test protocol is the in vivo lymphocytic leukemia P388 test. The animals used are either male or female CD2 F1 mice, six or seven animals per test group. The tumor transplant is by intraperitoneal injection of dilute ascitic fluid containing cells of lymphocytic leukemia P388. The test compounds are administered intraperitoneally once daily for five consecutive days at various doses following tumor inoculation. The animals are weighed and survivors are recorded on a regular basis for 30 days. A compound is designated "toxic" if, at a given dose, all animals died prior to four days after the first injection of drug. A ratio of survival time for treated (T)/control (C) animals is calculated. A criterion for efficacy is a ratio T/C times 100 greater than or equal to 125. See Cancer Chemotherapy Reports, Part 3, 3, 1 (1972) for a comprehensive discussion of the protocol.

Streptococcus pneumoniae = assay: in vitro antibacterial (ABMF) microdilution susceptibility test; assay type: cell-based; conditions: read-out: ABMF Test M.I.C. S. pneu.
Description: (§1) (d) Still another test protocol is the in vitro antibacterial (ABMF) test which is a recognized standard microdilution susceptibility procedure in Mueller-Hinton broth against gram-positive and gram-negative bacterial test organisms. The procedure is a modification of a state-of-the-art procedure reported in Manual of Clinical Microbiology, Lennette, E. H., ed., by Barry, A. L. and C. Thornsberry at pages 463-474 and by Gavan, T. L. and A. L. Barry at pages 459-462, American Society for Microbiology, Washington, 1980.
(§2) In the test, a given bacterial culture is used to inoculate individaul test wells of microdilution trays containing growth medium and test compound, the latter in a microdilution series: 1000, 333, 111, 37, 12, 4, 1.4, and 0.46 micrograms per milliliter. […] For convenience, values are reported for Escherichia coli, Branhamella catarrhalis, Alcaligenes viscolactis, Streptococcus pneumoniae, and Bacillus cereus

Branhamella catarrhalis = assay: as above; assay type: cell-based; conditions: Moraxella catarrhalis, read-out: ABMF Test M.I.C. B. cata.
Description: as §1, §2

Alcaligenes viscolactis = assay: as above; assay type: cell-based; conditions: read-out: ABMF Test M.I.C. A. visc.
Description: as §1, §2

Bacillus cereus = assay: as above; assay type: cell-based; conditions: read-out: ABMF Test M.I.C. B. cere.
Description: as §1, §2

Escherichia coli = assay: as above; assay type: cell-based; conditions: read-out: ABMF Test M.I.C. E. coli
Description: as §1, §2

L1210 cells = assay: PDC test, L1210 cell growth; assay type: cell-based, murine; conditions: Mus musculus, read-out: PDC ID50
Protocol: (c) Another test protocol is the PDC test. L1210 cells, a murine leukemia cell line, were grown in RPMI 1640 supplemented with 10% fetal bovine serum and genamicin (50 μg/ml). Drug dilutions were prepared in the appropriate solvent and 20 μl of each dilution were added to 24-well Linbro tissue culture plates followed by the addition of 2.0 ml of cell suspension containing 3×10^4 cells per ml. Solvent and medium controls were included in each test. After incubation at 37° C. for three days in 5% CO2 in air, the contents of each well were removed and the cells counted in a ZBI Coulter counter. Per cent growth was calculated relative to the controls and the levels of drug activity were expressed as ID50 in terms of molarity (M).

HCT-8 cells = assay: in vitro proliferating human colon adenocarcinoma (HCA) cell screen, HCT-8; assay type: cell-based; conditions: HCT-8 cells, 60 to 65 hours, ED50, read-out: HCA ED50 Avg.
Protocol: (a) One test protocol is the in vitro proliferating human colon adenocarcinoma (HCA) cell screen. In this test, HCT-8 cells (HCA cell line received from Yale University) are trypsinized using trypsin-EDTA. A single cell suspension is achieved by passing the cells through a 26 gauge needle with a 20-cc syringe. A cell suspension is prepared using RPMI 1640+10% FCS+50 μg/ml gentamicin sulfate with a cell concentration is approximately 30,000 cells/ml. The cell suspension is dispensed in Linbro 24-well plates; 1 ml/well. The plates are incubated for approximately 48 hours at 37° C. in a 5% CO2 atmosphere. At this time test compounds are added in the appropriate concentration. Five μl of the 200 μg/ml stock solution is added to each well in a primary test. […] of the appropriate dilution is added to each well for a titration test. The plates are reincubated an additional 60 to 65 hours at 37° C. in a 5% CO 2 atmosphere. The cells are lysed using a mix of cationic surfactant, glacial acetic acid, and sodium chloride. Two ml of the lysed cell suspension from each well is added to 8 ml of diluent. The number of nuclei is determined using a Coulter counter (ZBI model), and a percent growth for each drug concentration is calculated. From this, and ID50 (molar concentration of compound that results in 50% inhibition of growth) is determined.

[2] = Mueller-Hinton broth, 37° C., 16-24 hours

Row | Structure (SMILES) | response vs control in vivo at 6.25 mg/kg [1] [%] | response vs control in vivo at 12.5 mg/kg [1] [%] | MIC (Streptococcus pneumoniae; [2]) [µg/mL] | MIC (Branhamella catarrhalis; [2]) [µg/mL] | MIC (Alcaligenes viscolactis; [2]) [µg/mL] | MIC (Bacillus cereus; [2]) [µg/mL] | MIC (Escherichia coli; [2]) [µg/mL] | pIC50 (L1210 cells; 72 h, L1210 cells, three days) | also measured
1 | CN(C)CCn1nc2c3c(c([N+](=O)[O-])ccc31)Nc1ccc(N(C)C)cc1-2 [Example 39, 9-(Dimethylamino)-N,N-dimethyl-5-nitropyrazolo[3,4,5-kl]acridine-2(6H)-ethanamine, methanesulfonate (1:2), dihydrate] | 126 | 164 | 1.4 | 12.3 | 1.4 | 12.3 | 12.3 | 6.22 | response vs control in vivo at 25 mg/kg ([1]; 25 mg/kg): 189%
2 | CCOc1ccc2c(c1)-c1nn(CCN(C)C)c3ccc([N+](=O)[O-])c(c13)N2 [Example 37, 9-Ethoxy-N,N-dimethyl-5-nitropyrazolo[3,4,5-kl]acridine-2(6H)ethanamine, methanesulfonate (4:5)] | 191 | 234 | < 0.46 | 1.4 | < 0.46 | 4.1 | < 0.46 | 6.57 | response vs control in vivo at 3.12 mg/kg [1]: 150%; pIC50 (HCT-8 cells): 7.60
3 | CC(=O)Oc1ccc2c(c1)-c1nn(CCCN(C)C)c3ccc([N+](=O)[O-])c(c13)N2 [Example 47, 2-[3-(Dimethylamino)propyl]-5-nitropyrazolo[3,4,5-kl]acridin-9-ol, acetate (ester), methanesulfonate (salt) (1:1)] |  |  | < 0.46 | < 0.46 | < 0.46 | < 0.46 | < 0.46 | 8.72 | response vs control in vivo at 0.39 mg/kg ([1]; 0.39 mg/kg): 144%; response vs control in vivo at 0.78 mg/kg [1]: 178%
4 | CCN(CC)CCCn1nc2c3c(c([N+](=O)[O-])ccc31)Nc1ccc(OC)cc1-2 [Example 43, N,N-Diethyl-9-methoxy-5-nitropyrazolo[3,4,5-kl]acridine-2(6H)-propanamine, methanesulfonate, hydrate (1:1)] | 165 | 184 | < 0.46 | 4.1 | < 0.46 | 4.1 | 1.4 | 5.89 | response vs control in vivo at 50 mg/kg ([1]; 50 mg/kg): 202%
5 | CCN(CC)CCn1nc2c3c(c([N+](=O)[O-])ccc31)Nc1cc(OC)cc(OC)c1-2.CS(=O)(=O)O.O [Example 24, N,N-Diethyl-8,10-dimethoxy-5-nitropyrazolo[3,4,5-kl]acridine-2(6H)-ethanamine, methanesulfonate, hydrate (1:1:1)] |  |  | 1.4 | < 0.46 | < 0.46 | < 0.46 | 4.1 | 6.31 | 
6 | CCN(CC)CCOc1ccc2c(c1)-c1nn(CCN(CC)CC)c3ccc([N+](=O)[O-])c(c13)N2 [Example 21] |  |  | 12.3 (≈ 26.4 µM) | 12.3 (≈ 26.4 µM) | 4.1 (≈ 8.79 µM) | 37 (≈ 79.3 µM) | 111 (≈ 238 µM) | 6.34 | 
7 | CCN(CC)CCn1nc2c3c(c([N+](=O)[O-])ccc31)Nc1ccc(OC)c(Cl)c1-2 [Example 25, 10-Chloro-N,N-diethyl-9-methoxy-5-nitropyrazolo[3,4,5-kl]acridine-2(6Hethanamine, methanesulfonate, hydrate] |  |  | < 0.46 | < 0.46 | < 0.46 | < 0.46 | < 0.46 | 7.15 | 
8 | CN(C)CCCn1nc2c3c(c([N+](=O)[O-])ccc31)Nc1ccc(OC(=O)C(C)(C)C)cc1-2 [Example 48, 2-[3-(Dimethylamino)propyl]-5-nitropyrazolo[3,4,5-kl]acridin-9-ol, 2,2-dimethylpropanoate (ester), methanesulfonate (salt) (1:1)] |  |  | 4.1 | 1.4 | 0.46 | 333 | 3.7 | 8.01 | response vs control in vivo at 0.78 mg/kg [1]: 175%; response vs control in vivo at 1.56 mg/kg ([1]; 1.56 mg/kg): 263%
9 | CCN(CC)CCn1nc2c3c(c([N+](=O)[O-])cc([N+](=O)[O-])c31)Nc1ccc(O)cc1-2 [Example 49, 2-[2-(Diethylamino)ethyl]-2,6-dihydro-3,5-dinitropyrazolo[3,4,5-kl]acridin-9-ol, methanesulfonate, hemihydrate] |  |  |  |  |  |  |  |  | MIC (Streptococcus pneumoniae): < 0.46 µg/mL; MIC (Branhamella catarrhalis): < 0.46 µg/mL; MIC (Alcaligenes viscolactis): < 0.46 µg/mL; MIC (Bacillus cereus): < 0.46 µg/mL; MIC (Escherichia coli): < 0.46 µg/mL; pIC50 (L1210 cells; L1210, 72 h): 8.17
10 | CCOC(=O)Oc1ccc2c(c1)-c1nn(CCN(CC)CC)c3ccc([N+](=O)[O-])c(c13)N2 [Example 32, [2-[2-(Diethylamino)ethyl]-2,6-dihydro-5-nitropyrazolo [3,4,5-kl]acridin-9-yl]carbonic acid ethyl ester, methanesulfonate (salt) (1:1)] | 168 |  | < 0.46 | 1.4 | < 0.46 | < 0.46 | 4.1 | 8.49 | response vs control in vivo at 3.12 mg/kg [1]: 208%

Reference: US4555572A, “Pyrazolo[3,4,5-kl]acridine compositions and methods for their production and use” (Warner-Lambert Company, priority 1984, dated 1985)
